Data reported in patent US20250361221A1, “SOLID STATE FORMS OF PALTUSOTINE AND PROCESS FOR PREPARATION THEREOF” (ASSIA CHEMICAL INDUSTRIES LTD., priority 2022, published 2025).

Experiments:
Type in all cases: physicochemical
[1] = Thermal stability: heating up to 100° C. for 30 minutes (XRPD); details: Heating 100° C.
Method: (§1) X-ray diffraction was performed on X-Ray powder diffractometer: Bruker D8 Advance; CuKα radiation (λ=1.5418 Å); Lynx eye detector; laboratory temperature 22-25° C.; PMMA specimen holder ring with silicon low background. Prior to analysis, the samples were gently ground by means of mortar and pestle in order to obtain a fine powder. The ground sample was adjusted into a cavity of the sample holder and the surface of the sample was smoothed by means of a cover glass.
(§2) • Scan range: 2-40 degrees 2-theta; • Scan mode: continuous; • Step size: 0.05 degrees; • Time per step: 0.5 s; • Sample spin: 30 rpm; • Sample holder: PMMA specimen holder ring with silicon low background.
Samples of Paltusotine forms PL1 and PL11 were subjected to heating up to 100° C. for 30 minutes. XRPD analysis of the sample confirmed no change in the starting material (Table 4): […]

[2] = Grinding experiments: strong grinding and solvent drop grinding (XRPD); details: 2 minutes
Method: as §1, §2
Samples of Paltusotine forms PL1 and PL11 were subjected to strong grinding, and to solvent drop grinding in water, ethanol and isopropanol. Grinding was carried out on the samples alone, or in the presence of ethanol or water. In these experiments, about 20 mg of the sample is placed in a mortar and ground with a pestle for 2 minutes. The solvent, when used, as added to the crystalline material before grinding, in a volume of 10 microlitres. XRPD analysis performed on each of the samples after the grinding experiment, confirmed no change in the starting material (Table 3): […]

[3] = Stability to compression: pressure of 2 tons in a hydraulic press (XRPD); details: 2 tons/1 minute
Method: as §1, §2
Samples of Paltusotine forms PL1 and PL11 were subjected to a pressure of 2 tons in a hydraulic press (Atlas® Autopress hydraulic press, set to 2 tons). XRPD analysis was performed on the samples after 1 minute.

[4] = Storage stability at different relative humidities and temperatures, 6 months (XRPD); details: for XRPD analysis results: 6 months
Method: as §1, §2
Samples of Paltusotine form PL1 was subjected to conditions of different relative humidities at different temperatures. XRPD analysis was performed on the samples after 6 months.

Result (XRPD analysis) [1]: Stable
XRPD analysis results ([2]; Solvent-drop grinding (ethanol), 10 microlitres): No change
XRPD analysis results ([2]; Solvent-drop grinding (isopropanol), 10 microlitres): No change
XRPD analysis results ([2]; Solvent-drop grinding (water), 10 microlitres): No change
XRPD analysis results ([2]; Strong grinding, mortar and pestle): No change
Result (XRPD analysis) [3]: Stable
XRPD analysis results ([4]; 25° C., 60% RH): No change
time stable after exposure to high and low relative humidity at different temperatures ([4]; 25° C./60% RH and 40° C./75% RH): at least 6 months
XRPD analysis results ([4]; 40° C., 75% RH): No change
Structure (SMILES): N#Cc1cccc(-c2ccc3ncc(-c4cc(F)cc(F)c4)c(N4CCC(N)CC4)c3c2)c1O [Form PL1, Paltusotine]
